According to PubChem BioAssay AID248 (DTP/NCI, 2004):
Where “and” joins values, the source holds several entries; their conditions need not be identical. Identical values can stand only once. Inconclusive results and toxic doses are left out. No stated cut-off is given here; in the data, active means T/C of 150% or more; inactive means T/C below 125%.

System: L1210 leukemia ip in BDF1 mice, survival T/C
Assay: NCI In Vivo Anticancer Drug Screen. Data for tumor model L1210 Leukemia (intraperitoneal) in B6D2F1 (BDF1) mice
Conditions: endpoint: mean survival time, higher = longer survival
Summary of the method: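 Mice bearing the transplanted tumor received compound or vehicle. Survival of the treated group was divided by that of the vehicle-treated control group to give the ratio.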

[1] = dose: 100.0 mg/kg/injection, schedule: Q01DX001 (ip), vehicle: saline
[2] = dose: 200.0 mg/kg/injection, schedule: Q01DX001 (ip), vehicle: saline
[3] = dose: 400.0 mg/kg/injection, schedule: Q01DX001 (ip), vehicle: saline
[4] = dose: 100.0 mg/kg/injection, schedule: Q04DX002 (ip), vehicle: Klucel (hydroxypropylcellulose) (HPC)
[5] = dose: 200.0 mg/kg/injection, schedule: Q04DX002 (ip), vehicle: Klucel (hydroxypropylcellulose) (HPC)
[6] = dose: 400.0 mg/kg/injection, schedule: Q04DX002 (ip), vehicle: Klucel (hydroxypropylcellulose) (HPC)
[7] = dose: 50.0 mg/kg/injection, schedule: Q01DX009 (ip), vehicle: saline with Tween-80
[8] = dose: 100.0 mg/kg/injection, schedule: Q01DX009 (ip), vehicle: saline with Tween-80
[9] = dose: 100.0 mg/kg/injection, schedule: Q04DX003 (ip), vehicle: saline with Tween-80
[10] = dose: 200.0 mg/kg/injection, schedule: Q04DX003 (ip), vehicle: saline with Tween-80
[11] = dose: 400.0 mg/kg/injection, schedule: Q04DX003 (ip), vehicle: saline with Tween-80
[12] = dose: 10.0 mg/kg/injection, schedule: Q01DX001 (ip), vehicle: saline
[13] = dose: 20.0 mg/kg/injection, schedule: Q01DX001 (ip), vehicle: saline
[14] = dose: 100.0 mg/kg/injection, schedule: Q04DX002 (ip), vehicle: saline with Tween-80
[15] = dose: 200.0 mg/kg/injection, schedule: Q01DX009 (ip), vehicle: saline with Tween-80
[16] = dose: 200.0 mg/kg/injection, schedule: Q04DX002 (ip), vehicle: saline with Tween-80
[17] = dose: 400.0 mg/kg/injection, schedule: Q01DX009 (ip), vehicle: saline with Tween-80
[18] = dose: 400.0 mg/kg/injection, schedule: Q04DX002 (ip), vehicle: saline with Tween-80
[19] = dose: 100.0 mg/kg/injection, schedule: Q01DX001 (ip), vehicle: saline with Tween-80
[20] = dose: 200.0 mg/kg/injection, schedule: Q01DX001 (ip), vehicle: saline with Tween-80
[21] = dose: 100.0 mg/kg/injection, schedule: Q04DX003 (ip), vehicle: saline

Measured: T/C

O=C1OC(=O)C23CC=CCC12CC=CC3 (stereo not drawn)
inactive: dose: 50.0 mg/kg/injection, schedule: Q01DX001 (ip), vehicle: carboxymethylcellulose (CMC) 104 % of control | dose: 100.0 mg/kg/injection, schedule: Q01DX001 (ip), vehicle: carboxymethylcellulose (CMC) 113 % of control | dose: 200.0 mg/kg/injection, schedule: Q01DX001 (ip), vehicle: carboxymethylcellulose (CMC) 102 % of control | dose: 400.0 mg/kg/injection, schedule: Q01DX001 (ip), vehicle: carboxymethylcellulose (CMC) 104 % of control

CN(C(=O)c1ccccc1C(=O)N(C)c1ccccc1)c1ccccc1
inactive: [1] 109 % of control | [2] 109 % of control | [3] 97 % of control

CCCCCCCCCCCCCCCCOc1c(Cl)cc(Cl)cc1Cl
inactive: [4] 102 % of control | [5] 98 % of control | [6] 102 % of control

COC1OC(COC(=O)c2ccccc2)C(OC(=O)c2ccccc2)C(OC(=O)c2ccccc2)C1OS(=O)(=O)c1ccc(C)cc1 (stereo not drawn)
inactive: [4] 103 % of control | [5] 88 % of control | [6] 88 % of control

CCCCCCCCCCCCCCCC(=O)N(CCCN)C(C)CCCN(CC)CC (stereo not drawn)
inactive: dose: 25.0 mg/kg/injection, schedule: Q01DX009 (ip), vehicle: saline with Tween-80 93 % of control | [7] 86 % of control | [8] 102 % of control | [9] 97 % of control | [10] 103 % of control | [11] 100 % of control

Cc1ccc([As+](c2ccccc2)(c2ccccc2)c2ccccc2)cc1
inactive: dose: 5.0 mg/kg/injection, schedule: Q01DX001 (ip), vehicle: saline 101 % of control | [12] 95 % of control | [13] 96 % of control

Cc1ccc(C(=O)c2ccccc2C(=O)O)cc1C
inactive: [8] 90 % of control | [14] 93 % of control | [15] 93 % of control | [16] 114 % of control | [17] 87 % of control | [18] 101 % of control

CC(C)COC(CN)C(Cl)(Cl)Cl (stereo not drawn)
inactive: dose: 50.0 mg/kg/injection, schedule: Q01DX001 (ip), vehicle: saline with Tween-80 104 % of control | [7] 94 % of control and 110 % of control | dose: 50.0 mg/kg/injection, schedule: Q04DX003 (ip), vehicle: saline with Tween-80 100 % of control | [19] 103 % of control | [8] 97 % of control and 92 % of control | [14] 103 % of control and 104 % of control | [9] 95 % of control | [20] 97 % of control | [15] 93 % of control and 99 % of control | [16] 95 % of control and 101 % of control | [10] 92 % of control

CN(/N=C/c1ccccc1)C(=N)N
inactive: dose: 5.0 mg/kg/injection, schedule: Q01DX009 (ip), vehicle: saline 106 % of control | [12] 98 % of control | dose: 10.0 mg/kg/injection, schedule: Q01DX009 (ip), vehicle: saline 93 % of control | dose: 10.0 mg/kg/injection, schedule: Q04DX003 (ip), vehicle: saline 101 % of control | [13] 101 % of control | dose: 20.0 mg/kg/injection, schedule: Q01DX009 (ip), vehicle: saline 104 % of control | dose: 20.0 mg/kg/injection, schedule: Q04DX003 (ip), vehicle: saline 97 % of control | dose: 40.0 mg/kg/injection, schedule: Q01DX001 (ip), vehicle: saline 93 % of control | dose: 40.0 mg/kg/injection, schedule: Q04DX003 (ip), vehicle: saline 103 % of control | dose: 62.5 mg/kg/injection, schedule: Q04DX003 (ip), vehicle: saline 117 % of control | dose: 75.0 mg/kg/injection, schedule: Q01DX001 (ip), vehicle: saline 100 % of control

CC1CCCCN1C(=O)Nc1ccccc1C(F)(F)F (stereo not drawn)
inactive: [19] 96 % of control and 97 % of control | [8] 100 % of control and 119 % of control | [14] 96 % of control and 86 % of control | [9] 99 % of control and 91 % of control | [20] 97 % of control and 100 % of control | [15] 106 % of control and 107 % of control | [16] 96 % of control and 99 % of control | [10] 95 % of control and 101 % of control | dose: 400.0 mg/kg/injection, schedule: Q01DX001 (ip), vehicle: saline with Tween-80 100 % of control and 90 % of control | [17] 93 % of control and 116 % of control | [18] 95 % of control and 100 % of control | [11] 91 % of control

CCN(CC)C(=O)/C=C\c1ccccc1
inactive: [7] 102 % of control | [8] 102 % of control | [15] 112 % of control

CC(=O)/C(=C/c1ccccc1)c1ccccc1
inactive: dose: 75.0 mg/kg/injection, schedule: Q01DX009 (ip), vehicle: Klucel (hydroxypropylcellulose) (HPC) 95 % of control | dose: 75.0 mg/kg/injection, schedule: Q04DX003 (ip), vehicle: Klucel (hydroxypropylcellulose) (HPC) 104 % of control | dose: 150.0 mg/kg/injection, schedule: Q01DX009 (ip), vehicle: Klucel (hydroxypropylcellulose) (HPC) 106 % of control | dose: 150.0 mg/kg/injection, schedule: Q04DX003 (ip), vehicle: Klucel (hydroxypropylcellulose) (HPC) 100 % of control | dose: 300.0 mg/kg/injection, schedule: Q01DX009 (ip), vehicle: Klucel (hydroxypropylcellulose) (HPC) 102 % of control | dose: 300.0 mg/kg/injection, schedule: Q04DX003 (ip), vehicle: Klucel (hydroxypropylcellulose) (HPC) 104 % of control

O=C(NCCCCC(NC(=O)OCc1ccccc1)C(=O)NCCCCCCN(CCCCCCNC(=O)C(CCCCNC(=O)OCc1ccccc1)NC(=O)OCc1ccccc1)C(=O)C(CCCCNC(=O)OCc1ccccc1)NC(=O)OCc1ccccc1)OCc1ccccc1 (stereo not drawn)
inactive: [1] 100 % of control | [2] 94 % of control | [3] 94 % of control

CCC(N)C(O)C(F)(F)C(F)(F)C(F)(F)F (stereo not drawn)
inactive: [1] 112 % of control | [2] 103 % of control

C1=C(/c2ccccc2)CCCCCC/1
inactive: dose: 37.5 mg/kg/injection, schedule: Q01DX009 (ip), vehicle: saline 101 % of control | dose: 75.0 mg/kg/injection, schedule: Q01DX001 (ip), vehicle: acetone 98 % of control | dose: 75.0 mg/kg/injection, schedule: Q01DX009 (ip), vehicle: saline 90 % of control | dose: 150.0 mg/kg/injection, schedule: Q01DX001 (ip), vehicle: acetone 93 % of control | dose: 150.0 mg/kg/injection, schedule: Q01DX009 (ip), vehicle: saline 103 % of control | dose: 300.0 mg/kg/injection, schedule: Q01DX001 (ip), vehicle: acetone 91 % of control

CN1CCCCC1C(O)CO (stereo not drawn)
inactive: [21] 103 % of control | dose: 200.0 mg/kg/injection, schedule: Q04DX003 (ip), vehicle: saline 102 % of control | dose: 400.0 mg/kg/injection, schedule: Q04DX003 (ip), vehicle: saline 100 % of control

Cc1c[n+]([O-])ccc1[N+](=O)[O-]
inactive: dose: 25.0 mg/kg/injection, schedule: Q01DX009 (ip), vehicle: saline 90 % of control | dose: 25.0 mg/kg/injection, schedule: Q04DX003 (ip), vehicle: saline 105 % of control | dose: 50.0 mg/kg/injection, schedule: Q01DX009 (ip), vehicle: saline 90 % of control | dose: 50.0 mg/kg/injection, schedule: Q04DX003 (ip), vehicle: saline 97 % of control | dose: 100.0 mg/kg/injection, schedule: Q01DX009 (ip), vehicle: saline 88 % of control | [21] 90 % of control and 91 % of control

CC(=O)N1C(=O)C(Cl)C(Cl)C(=O)N1C(C)=O (stereo not drawn)
inactive: dose: 100.0 mg/kg/injection, schedule: Q04DX003 (ip), vehicle: Klucel (hydroxypropylcellulose) (HPC) 89 % of control | dose: 200.0 mg/kg/injection, schedule: Q04DX003 (ip), vehicle: Klucel (hydroxypropylcellulose) (HPC) 89 % of control

Clc1ccc(Cl)c(SSc2cc(Cl)ccc2Cl)c1
inactive: [1] 101 % of control | [2] 98 % of control | [3] 89 % of control

Cn1c(=O)c2[nH]c(CC3CCCC3)nc2n(C)c1=O
inactive: dose: 50.0 mg/kg/injection, schedule: Q01DX001 (ip), vehicle: saline 104 % of control | [1] 104 % of control | [2] 101 % of control | [3] 95 % of control

C=C1C(=O)O[C@@H]2C[C@@]3(C)CCC[C@H](C)C3=C[C@H]12
inactive: [1] 112 % of control | [2] 98 % of control | [3] 102 % of control
